Measured values: ChEMBL document CHEMBL1201862, “PubChem BioAssay data set” (2004)
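Each compound was tested at five concentrations against cells in 96-well plates for 48 hours. The concentration for 50% growth inhibition is given as GI50.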 Active and inactive are the calls of the source. Rule as the data show it: active = GI50 up to about 1.1 µM and inactive = higher.

Tests used:
Assay in all cases: NCI tumour cell line growth inhibition, 48 h
OVCAR-5 = system: OVCAR-5
786-0 = system: 786-0
U-251 = system: U-251
SNB-19 = system: SNB-19
OVCAR-3 = system: OVCAR-3
KM12 = system: KM12
HT-29 = system: HT-29
CAKI-1 = system: CAKI-1
SR = system: SR
Malme-3M = system: Malme-3M
SK-OV-3 = system: SK-OV-3
NCI/ADR-RES = system: NCI/ADR-RES
A549 = system: A549
MDA-MB-435 = system: MDA-MB-435
MOLT-4 = system: MOLT-4
SNB-75 = system: SNB-75
SF-295 = system: SF-295
DU-145 = system: DU-145
OVCAR-4 = system: OVCAR-4
SF-268 = system: SF-268

Measured: GI50

C[N+](C)(CCNC(=O)c1cccc2cc3ccccc3nc12)Cc1ccc([N+](=O)[O-])cc1
inactive: OVCAR-5 > 100 µM | 786-0 > 100 µM | U-251 > 100 µM | SNB-19 > 100 µM | OVCAR-3 > 100 µM | KM12 > 100 µM | HT-29 > 100 µM | CAKI-1 > 100 µM | SR > 100 µM | Malme-3M 49.5 µM | SK-OV-3 > 100 µM | NCI/ADR-RES > 100 µM | A549 > 100 µM | MDA-MB-435 > 100 µM | MOLT-4 > 100 µM | SNB-75 > 100 µM | SF-295 > 100 µM | DU-145 > 100 µM | OVCAR-4 > 100 µM | SF-268 > 100 µM

CC(C)(C)c1ccc(-c2nc3ccccc3c(=O)o2)cc1
inactive: OVCAR-5 44.2 µM | 786-0 74.6 µM | U-251 40.6 µM | SNB-19 43.1 µM | OVCAR-3 24.5 µM | KM12 29.1 µM | HT-29 42 µM | CAKI-1 86.3 µM | SR 22.5 µM | Malme-3M 35.8 µM | SK-OV-3 83.4 µM | NCI/ADR-RES 55.2 µM | A549 27.9 µM | MDA-MB-435 > 100 µM | MOLT-4 20.4 µM | SNB-75 24 µM | SF-295 23.8 µM | DU-145 59.7 µM | OVCAR-4 35.7 µM | SF-268 53.6 µM
